In patent US8552002B2 (Novartis AG, priority 2004, dated 2013) one finds inhibition data, which are given here for 16 compounds.

One may read the inhibition as the percentage by which the read-out fell short of the control.

Assay type in all cases: biochemical
One experiment has as its target T1, Tek (Homo sapiens, UniProt Q02763).
T1 construct: amino acids 773-1124 of the cytoplasmic kinase domain of human Tek, N-terminally fused to GST; made in house; host or cells: Sf9 insect cells (baculovirus)
The experiment in a line: Recombinant GST-Tek (Tie-2) tyrosine kinase assay (33P into poly(Glu,Tyr)). Conditions: Examples 1 to 169. The text has this: (Tie-2/Tek): The baculovirus donor vector pFbacG01 was used to generate a recombinant baculovirus that expressed the amino acid region amino acids 773-1124 of the cytoplasmic kinase domain of human Tek, N-terminally fused to GST (Provided by Dr. Marmé, Institute of Molecular Medicine, Freiburg, Germany based on a Research Collaboration). Tek was recloned into the pFbacG01 transfer vector by EcoRI excision and ligation into EcoRI digested pFbacG01 (FBG-Tie2/Tek).
Production of virus: Transfer vectors containing the kinase domains were transfected into the DH10Bac cell line (GIBCO) and plated on selective agar plates. Colonies without insertion of the fusion sequence into the viral genome (carried by the bacteria) are blue. Single white colonies were picked and viral DNA (bacmid) isolated from the bacteria by standard plasmid purification procedures. Sf9 cells or Sf21 cells were then transfected in 25 cm^2 flasks with the viral DNA using Cellfectin reagent.
Determination of small scale protein expression in Sf9 cells: Virus containing media was collected from the transfected cell culture and used for infection to increase its titer. Virus containing media obtained after two rounds of infection was used for large-scale protein expression. For large-scale protein expression 100 cm^2 round tissue culture plates were seeded with 5×10^7 cells/plate and infected with 1 mL of virus-containing media (approx. 5 MOIs). After 3 days the cells were scraped off the plate and centrifuged at 500 rpm for 5 min. Cell pellets from 10-20, 100 cm^2 plates, were resuspended in 50 mL of ice-cold lysis buffer (25 mMTris-HCl, pH7.5, 2 mMEDTA, 1% NP-40, 1 mM DTT, 1 mMP MSF). The cells were stirred on ice for 15 min and then centrifuged at 5000 rpms for 20 min.
Purification of GST-tagged proteins: The centrifuged cell lysate was loaded onto a 2 mL glutathione-sepharose column and washed three times with 10 mL of 25 mM Tris-HCl, pH 7.5, 2 mM EDTA, 1 mM DTT, 200 mM NaCl. The GST-tagged proteins were then eluted by 10 applications (1 mL each) of 25 mM Tris-HCl, pH 7.5, 10 mM reduced-glutathione, 100 mM NaCl, 1 mM DTT, 10% Glycerol and stored at −70° C.
Measure of enzyme activity: Tyrosine protein kinase assays with either purified GST-Ret, GST-Tek or GST-FGFR-3-K650E were carried out in a final volume of 30 μL with final concentrations of the following components: Ret included 15 ng of GST-Ret, 20 mM Tris-HCl, pH 7.5, 1 mM MnCl2, 10 mM MgCl2, 1 mM DTT, 3 μg/mL poly(Glu,Tyr) 4:1, 1% DMSO and 2.0 μM ATP (γ-[^33P]-ATP 0.1 μCi). Tek included 150 ng of GST-Tek, 20 mM Tris-HCl, pH 7.5, 3 mM MnCl2, 3 mM MgCl2, 1 mM DTT, 0.01 mM Na3VO4, 250 μg/mL PEG 20'000, 10 μg/mL poly(Glu,Tyr) 4:1, 1% DMSO and 4.0 μM ATP (γ-[^33P]-ATP 0.1 μCi). FGFR-3-K650E included 10 ng of GST-FGFR-3-K650E, 20 mM Tris-HCl, pH 7.5, 3 mM MnCl2, 3 mM MgCl2, 1 mM DTT, […], 10 μg/mL poly(Glu,Tyr) 4:1, 1% DMSO and 4.0 μM ATP (γ-[^33P]-ATP 0.1 μCi).The activity was assayed in the presence or absence of inhibitors, by measuring the incorporation of ^33P from [γ^33P] ATP into poly(Glu,Tyr) 4:1. The assay was carried out in 96-well plates at ambient temperature for 30 min under conditions described below and terminated by the addition of 50 μL of 125 mM EDTA. Subsequently, 60 μL of the reaction mixture were transferred onto Immobilon-PVDF membrane (Millipore) previously soaked for 5 min with methanol, rinsed with water, then soaked for 5 min with 0.5% H3PO4 and mounted on vacuum manifold with disconnected vacuum source. After spotting all samples, vacuum was connected and each well rinsed with 200 μL 0.5% H3PO4. Membranes were removed and washed 4× on a shaker with 1.0% H3PO4, once with ethanol. Membranes were counted after drying at ambient temperature, mounting in Packard TopCount 96-well frame, and addition of 10 μL/well of Microscint™ (Packard). […]

Another experiment concerns the target T2, KDR (Homo sapiens, UniProt P35968).
T2 construct: expressed in transfected cells; host or cells: CHO cells
The experiment in a line: Inhibitory activity against KDR (VEGF-R2), in vitro data of Examples 170 and 207. Conditions: 10 μM; Examples 1 to 169; read-out: KDR inhibition at 10 μM. As for the experimental part: (Controls comprise medium without test compounds). After two hours of incubation at 37° C., recombinant VEGF is added; the final VEGF concentration is 20 ng/ml. After a further five minutes incubation at 37° C., the cells are washed twice with ice-cold PBS (phosphate-buffered saline) and immediately lysed in 100 μl lysis buffer per well. The lysates are then centrifuged to remove the cell nuclei, and the protein concentrations of the supernatants are determined using a commercial protein assay (BIORAD). The lysates can then either be immediately used or, if necessary, stored at −20° C. […] The plates are then washed and the remaining free protein-binding sites are saturated with 3% TopBlock® (Juro, Cat. # TB232010) in phosphate buffered saline with Tween 20® (polyoxyethylen(20)sorbitane monolaurate, ICI/Uniquema) (PBST). The cell lysates (20 μg protein per well) are then incubated in these plates overnight at 4° C. together with an antiphosphotyrosine antibody coupled with alkaline phosphatase (PY20:AP from Zymed). […] The luminescence is measured in a Packard Top Count Microplate Scintillation Counter.

A further experiment deals with T3, FGFR3 (K650E) (Homo sapiens, UniProt P22607, K650E).
T3 construct: amino acids 411-806 of the cytoplasmic domain of human FGFR-3, N-terminally fused to GST; made in house; host or cells: Sf9 insect cells (baculovirus)
T3 sequence (P22607 411-806 K650E): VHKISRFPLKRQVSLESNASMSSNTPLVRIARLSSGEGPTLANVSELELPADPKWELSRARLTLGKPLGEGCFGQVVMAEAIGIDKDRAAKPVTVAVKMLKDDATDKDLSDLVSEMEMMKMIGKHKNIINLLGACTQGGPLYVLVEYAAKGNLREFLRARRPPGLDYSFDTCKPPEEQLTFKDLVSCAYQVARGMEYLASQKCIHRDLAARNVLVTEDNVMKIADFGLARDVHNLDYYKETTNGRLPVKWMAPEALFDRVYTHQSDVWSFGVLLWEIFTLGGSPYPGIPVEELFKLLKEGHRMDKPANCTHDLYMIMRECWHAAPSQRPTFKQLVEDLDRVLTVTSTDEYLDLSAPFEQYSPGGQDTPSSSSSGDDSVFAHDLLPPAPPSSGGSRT
Description: Recombinant GST-FGFR-3-K650E tyrosine kinase assay (33P into poly(Glu,Tyr)). Conditions: 10 μM; Examples 1 to 169; read-out: FGFR3 (K650E) inhibition at 10 μM.

T2 sequence (P35968 20-1356): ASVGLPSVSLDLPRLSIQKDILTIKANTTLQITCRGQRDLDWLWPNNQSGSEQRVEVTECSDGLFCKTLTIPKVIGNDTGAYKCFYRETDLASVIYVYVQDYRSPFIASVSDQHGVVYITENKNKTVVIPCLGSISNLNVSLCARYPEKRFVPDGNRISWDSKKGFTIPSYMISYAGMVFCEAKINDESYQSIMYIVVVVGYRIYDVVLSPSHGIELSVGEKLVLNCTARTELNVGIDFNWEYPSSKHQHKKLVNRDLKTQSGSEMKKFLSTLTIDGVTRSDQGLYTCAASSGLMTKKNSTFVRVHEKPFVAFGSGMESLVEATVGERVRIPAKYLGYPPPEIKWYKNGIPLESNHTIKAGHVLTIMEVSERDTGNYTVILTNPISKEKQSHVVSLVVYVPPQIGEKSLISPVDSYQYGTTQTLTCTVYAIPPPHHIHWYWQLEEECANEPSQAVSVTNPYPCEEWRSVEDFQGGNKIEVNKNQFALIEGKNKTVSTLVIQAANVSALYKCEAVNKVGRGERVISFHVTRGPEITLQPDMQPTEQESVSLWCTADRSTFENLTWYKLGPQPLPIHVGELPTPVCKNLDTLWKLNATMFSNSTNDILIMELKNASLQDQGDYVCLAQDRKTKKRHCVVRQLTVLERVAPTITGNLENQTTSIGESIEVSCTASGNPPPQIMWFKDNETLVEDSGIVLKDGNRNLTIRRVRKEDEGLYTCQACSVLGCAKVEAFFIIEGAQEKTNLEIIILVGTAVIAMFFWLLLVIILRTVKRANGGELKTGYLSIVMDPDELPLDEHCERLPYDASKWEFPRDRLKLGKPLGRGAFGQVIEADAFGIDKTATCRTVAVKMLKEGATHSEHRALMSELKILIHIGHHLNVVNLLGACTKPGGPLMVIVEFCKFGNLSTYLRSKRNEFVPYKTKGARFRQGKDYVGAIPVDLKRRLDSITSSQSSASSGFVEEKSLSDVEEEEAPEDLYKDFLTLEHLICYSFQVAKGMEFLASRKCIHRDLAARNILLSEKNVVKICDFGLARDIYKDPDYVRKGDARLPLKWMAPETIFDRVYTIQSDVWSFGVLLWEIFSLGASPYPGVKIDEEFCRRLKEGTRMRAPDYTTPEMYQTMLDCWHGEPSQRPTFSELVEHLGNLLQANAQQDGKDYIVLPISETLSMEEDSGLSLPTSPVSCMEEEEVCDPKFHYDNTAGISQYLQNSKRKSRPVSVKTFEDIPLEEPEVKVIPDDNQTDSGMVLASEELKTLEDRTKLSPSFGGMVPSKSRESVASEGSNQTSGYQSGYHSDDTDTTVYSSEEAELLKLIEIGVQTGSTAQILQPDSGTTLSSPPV
T1 sequence (Q02763 773-1124): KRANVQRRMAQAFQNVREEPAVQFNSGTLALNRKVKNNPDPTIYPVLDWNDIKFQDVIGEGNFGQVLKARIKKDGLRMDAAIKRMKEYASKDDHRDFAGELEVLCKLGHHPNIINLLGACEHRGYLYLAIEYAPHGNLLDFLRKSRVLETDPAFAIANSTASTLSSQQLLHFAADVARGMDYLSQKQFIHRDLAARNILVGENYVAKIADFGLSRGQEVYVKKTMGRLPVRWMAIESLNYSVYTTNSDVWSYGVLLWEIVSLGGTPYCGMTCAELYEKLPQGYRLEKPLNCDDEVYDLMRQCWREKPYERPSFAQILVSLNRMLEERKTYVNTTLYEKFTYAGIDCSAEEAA

Consider `COc1cc(NC(=O)Nc2cc(Nc3cccc(N4CCN(C)CC4)c3)ncn2)cc(OC)c1OC` [Example 15, 1-{6-[3-(4-Methyl-piperazin-1-yl)-phenylamino]-pyrimidin-4-yl}-3-(3,4,5-trimethoxy-phenyl)-urea], for which the inhibition at 10 µM at Tek lay in the range of 12 to 100%; at KDR it was 67 to 100%; on FGFR3 (K650E), 27 to 100%.
`COc1ccc(Cl)cc1NC(=O)Nc1cc(Nc2ccc(N3CCN(C)CC3)cc2)ncn1` [Example 78, 1-(5-Chloro-2-methoxy-phenyl)-3-{6-[4-(4-methyl-piperazin-1-yl)-phenylamino]-pyrimidin-4-yl}-urea]: the inhibition at 10 µM was in the range of 12 to 100% on Tek, 67 to 100% on KDR and 27 to 100% on FGFR3 (K650E).
For `CCN(CC)CCOc1ccc(Nc2cc(NC(=O)Nc3ccccc3Br)ncn2)cc1` [Example 101, 1-(2-Bromo-phenyl)-3-{6-[4-(2-diethylamino-ethoxy)-phenylamino]-pyrimidin-4-yl}-urea], the inhibition at 10 µM at Tek was in the range of 12 to 100%; on KDR it was 67 to 100%; on FGFR3 (K650E), 27 to 100%.
The matching figures for `COc1cc(NC(=O)Nc2cc(Nc3ccc(N4CCN(C)CC4)cc3)ncn2)ccc1F` [Example 32, 1-(4-Fluoro-3-methoxy-phenyl)-3-{6-[4-(4-methyl-piperazin-1-yl)-phenyl-amino]-pyrimidin-4-yl}-urea]: 12 to 100%, 67 to 100% and 27 to 100%.
With `CCN(CC)c1ccc(Nc2cc(NC(=O)Nc3c(F)cccc3F)ncn2)cc1` [Example 105, 1-[6-(4-Diethylamino-phenylamino)-pyrimidin-4-yl]-3-(2,6-difluoro-phenyl)-urea], the inhibition at 10 µM lay in the range of 12 to 100% at Tek, 67 to 100% on KDR and 27 to 100% at FGFR3 (K650E).
Take `CCN1CCN(c2ccc(Nc3cc(N(C)C(=O)Nc4c(Cl)c(OC)cc(OC)c4Cl)ncn3)cc2)CC1` [Example 145, 3-(2,6-Dichloro-3,5-dimethoxy-phenyl)-1-{6-[4-(4-ethyl-piperazin-1-yl)-phenylamino]-pyrimidin-4-yl}-1-methyl-urea]: the figures for the inhibition at 10 µM at Tek, on KDR and at FGFR3 (K650E) were 12 to 100%, 67 to 100% and 27 to 100%, respectively.
For `COc1cc(OC)c(Cl)c(NC(=O)N(C)c2cc(Nc3ccc(C)nc3C)ncn2)c1Cl` [Example 153, 3-(2,6-Dichloro-3,5-dimethoxy-phenyl)-1-[6-(2,6-dimethyl-pyridin-3-ylamino)-pyrimidin-4-yl]-1-methyl-urea], the figures for the inhibition at 10 µM at Tek, at KDR and at FGFR3 (K650E) were 12 to 100%, 67 to 100% and 27 to 100%, respectively.
With `CCN(CC)CCOc1ccc(Nc2cc(NC(=O)Nc3ccccc3Cl)ncn2)cc1` [Example 126, 1-(2-Chloro-phenyl)-3-{6-[4-(2-diethylamino-ethoxy)-phenylamino]-pyrimidin-4-yl}-urea], the inhibition at 10 µM at Tek was in the range of 12 to 100%; on KDR, 67 to 100%; at FGFR3 (K650E) it was 27 to 100%.
The matching figures for `O=C(Nc1cc(Nc2ccc(OCCN3CCOCC3)cc2)ncn1)Nc1ccccc1Cl` [Example 142, 1-(2-Chloro-phenyl)-3-{6-[4-(2-morpholin-4-yl-ethoxy)-phenylamino]-pyrimidin-4-yl}-urea]: 12 to 100%, 67 to 100% and 27 to 100%.
As to `COc1ccc(NC(=O)Nc2cc(Nc3cccc(N4CCN(C)CC4)c3)ncn2)cc1OC` [Example 31, 1-(3,4-Dimethoxy-Phenyl)-3-{6-[3-(4-methyl-piperazin-1-yl)-phenyl-amino]-pyrimidin-4-yl}-urea], the figures for the inhibition at 10 µM at Tek, on KDR and on FGFR3 (K650E) were 12 to 100%, 67 to 100% and 27 to 100%, respectively.
As to `COc1cc(OC)c(Cl)c(NC(=O)Nc2cc(Nc3ccc(OCCN4CCN(C)CC4)cc3)ncn2)c1Cl` [Example 158, 1-(2,6-Dichloro-3,5-dimethoxy-phenyl)-3-(6-{4-[2-(4-methyl-piperazin-1-yl)-ethoxy]-phenylamino}-pyrimidin-4-yl)-urea], the results for the inhibition at 10 µM at Tek, at KDR and at FGFR3 (K650E) were 12 to 100%, 67 to 100% and 27 to 100%, respectively.
Consider `Cc1cccc(Cl)c1NC(=O)Nc1cc(Nc2ccc(N3CCN(C)CC3)cc2)ncn1` [Example 6, 1-(2-Chloro-6-methyl-Phenyl)-3-{6-[4-(4-methyl-piperazin-1-yl)-phenyl-amino]-pyrimidin-4-yl}-urea], for which the inhibition at 10 µM is 12 to 100% at Tek, 67 to 100% at KDR and 27 to 100% at FGFR3 (K650E).
For `COc1cc(NC(=O)Nc2cc(Nc3cccc(N4CCN(C)CC4)c3)ncn2)c(Cl)c(OC)c1` [Example 41], the inhibition at 10 µM is 12 to 100% on Tek, 67 to 100% at KDR and 27 to 100% on FGFR3 (K650E).
Regarding `O=C(Nc1cccc(Cl)c1)Nc1cc(Nc2cccc(Cl)c2)ncn1` [Example 135, 1-(3-Chloro-phenyl)-3-[6-(3-chloro-phenylamino)-pyrimidin-4-yl]-urea], the figures for the inhibition at 10 µM at Tek, on KDR and on FGFR3 (K650E) were 12 to 100%, 67 to 100% and 27 to 100%, respectively.
On to `CN(C(=O)Nc1cccc(Cl)c1)c1cc(Nc2ccc(F)cc2)ncn1` [Example 122, 3-(3-Chloro-Phenyl)-1-[6-(4-fluoro-phenylamino)-pyrimidin-4-yl]-1-methyl-urea], for which the inhibition at 10 µM at Tek fell in the range of 12 to 100%; at KDR it was 67 to 100%; on FGFR3 (K650E), 27 to 100%.
For the compound `COc1cc(NC(=O)N(C)c2cc(Nc3cccc(N4CCN(C)CC4)c3)ncn2)cc(OC)c1` [Example 48, 3-(3,5-Dimethoxy-phenyl)-1-methyl-1-{6-[3-(4-methyl-piperazin-1-yl)-phenylamino]-pyrimidin-4-yl}-urea], the inhibition at 10 µM at Tek was 12 to 100%; on KDR, 67 to 100%; on FGFR3 (K650E), 27 to 100%.
